Test results from patent US8008329B2 (Dong Wha Pharmaceutical Co., Ltd., priority 2008, dated 2011).
Values joined by “and” are separate entries in the source; they are usually repeats but may differ in a detail not shown here. Identical values can stand only once. Marks after values point to notes of the source that are not given here.

What was measured:
[1] = system: osteoclast differentiation; assay: Osteoclast differentiation in co-culture of mouse bone marrow cells and ST2 cells, TRAP staining (Examples 8-9); assay type: cell-based; conditions: for % number of osteoclast (vs. solvent control group): day 7; for activity at 0.1 µM: Mus musculus, Osteoclast, 168 h, day 7, read-out: % number of osteoclast (vs. solvent control group)
Method in brief: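 Bone marrow cells from 6-8-week male ddY mice were co-cultured with ST2 stromal cells under 10^−8 M vitamin D3 and 10^−8 M dexamethasone, with compounds at 0.1 μM final (0.1% DMSO control), refreshed on days 3 and 5. On day 7, TRAP-positive osteoclasts with ≥6 nuclei were counted and expressed as % of solvent control (n=4).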

[2] = system: osteoclast differentiation; assay: Osteoclast differentiation in co-culture of mouse bone marrow cells and calvarial osteoblasts, TRAP staining (Examples 1-7); assay type: cell-based; conditions: day 7
[3] = singly treated with 0.1 μM alendronic acid

| SMILES | % number of osteoclast (vs. solvent control group) ([1]; Combination treatment (alendronic acid + compounds), 0.1 μM each) | % number of osteoclast (vs. solvent control group) ([1]; Combination treatment (risedronic acid + compounds), 0.1 μM each) | activity at 0.1 µM ([1]; Individual treatment (compounds), 0.1 μM) | activity at 0.1 µM ([2]; Mus musculus, Osteoclast, 168 h, individual treatment of Compound (0.1 μM), read-out: % number of osteoclast (vs. solvent control group)) | % number of osteoclast (vs. solvent control group) ([2]; combination treatment of alendronic acid (0.2 μM) with compound (0.1 μM)) | % number of osteoclast (vs. solvent control group) ([2]; combination treatment of clodronic acid (1 μM) with compound (0.1 μM)) | % number of osteoclast (vs. solvent control group) ([2]; combination treatment of etidronic acid (2 μM) with compound (0.1 μM)) | % number of osteoclast (vs. solvent control group) ([2]; combination treatment of ibandronic acid (0.1 μM) with compound (0.1 μM)) | % number of osteoclast (vs. solvent control group) ([2]; combination treatment of pamidronic acid (0.1 μM) with compound (0.1 μM)) | % number of osteoclast (vs. solvent control group) ([2]; combination treatment of risedronic acid (0.1 μM) with compound (0.1 μM)) | % number of osteoclast (vs. solvent control group) ([2]; combination treatment of zoledronic acid (0.01 μM) with compound (0.1 μM)) | % number of osteoclast (vs. solvent control group) ([2]; individual treatment of Compound (0.1 μM)) | activity at 0.1 µM [1, 3] | % number of osteoclast (vs. solvent control group) [1, 3] | activity at 0.2 µM ([2]; Mus musculus, Osteoclast, 168 h, individual treatment of alendronic acid (0.2 μM), read-out: % number of osteoclast (vs. solvent control group)) | % number of osteoclast (vs. solvent control group) ([2]; individual treatment of alendronic acid (0.2 μM)) |
| --- | --- | --- | --- | --- | --- | --- | --- | --- | --- | --- | --- | --- | --- | --- | --- | --- |
| CCCN(CCC)c1nc(-c2ccc(OCCCCCOc3ccc(C(=N)NO)cc3)cc2)c(CC)s1 [Compound 138, N-hydroxy-4-{5-[4-(2-dipropylamino-5-ethyl-1,3-thiazol-4-yl)phenoxy]pentyloxy}-benzamidine] | 18 ± 6.8^ab % | 31 ± 3.2^ac % | 57 ± 7.2% | 71% | 32% and 32 ± 8.9*^#@ % | 54 ± 11.9*^#@ % | 40% and 40 ± 8.4*^#@ % | 45 ± 7.6*^#@ % | 42% and 42 ± 6.2*^#@ % | 35% and 35 ± 8.2*^#@ % | 48 ± 8.9*^#@ % | 71 ± 6.5 % | – | – | – | – |
| NCCCC(O)(P(=O)(O)O)P(=O)(O)O [alendronic acid, reference compound] | – | – | – | – | – | – | – | – | – | – | – | – | 76% | 76 ± 6.2 % | 80% | 80 ± 5.7 % |
